Source: patent US20240327459A1, “PEPTIDE FRAGMENTS FOR TREATMENT OF DIABETES” (Follicum AB, priority 2018, published 2024)
“Also recorded” adds a separate entry of the source.

Legend:
wild type C57bl/6 mice = assay: Intraperitoneal glucose tolerance test (IPGTT); type: in vivo, mouse; conditions: 15 min before 2 g glucose/kg ip, vs saline control
Procedure: Whole blood was collected for glucose and insulin measurements from 10-week-old wild type maleC57bl/6 mice. After a 4 hour fast, the mice were divided into three groups and given an intraperitoneal injection (ip) of either saline, 30 nmol/kg peptide (FIG. 9A) or 200 nmol/kg peptide (FIG. 9B). 15 min after the FOL-014 or saline (control) injections, the mice were administered 2 g of glucose/kg ip. Blood glucose concentrations were measured at 5, 15, 30, 45 and 60 minutes after the glucose injection. Statistical calculations were performed using student's t-test. […] In addition, the difference was significant at 15, 30 and 45 minutes.

[1] = test system: human pancreatic β-cell line 1.2B4; assay: Insulin secretion from 1.2B4 human β-cells; type: cell-based; conditions: 100 nM peptide, 16.7 mM glucose, 60 minutes
Procedure: In order to test the effect of FOL-014 and FOL-056 in human cells, the human pancreatic β-cell line 1.2B4 were cultured at 37° C. and 5% CO2 in RPMI 1640 supplemented with 10% fetal bovine serum, 50 IU/mL penicillin, 50 mg/L streptomycin, 1 mM L-glutamine. 1.2B4 cells were seeded in 24-well plates in RPMI medium and following overnight incubation, the medium was removed before pre-incubation for 40 min at 37° C. in Krebs-Ringer bicarbonate buffer, pH 7.4, supplemented with 10 mM HEPES, 0.1% bovine serum albumin and 1.0 mM glucose. Following pre-incubation, the buffer was exchanged with fresh Krebs-Ringer buffer as described above and supplemented with specific glucose concentrations, 1 mM or 16.7 mM. FOL-014, FOL-056 or Liraglutide was added at a concentration of 100 nM in the presence of 16.7 mM glucose. Immediately after 60 minutes incubation at 37° C., an aliquot of the buffer was removed and frozen for subsequent insulin ELISA assay. (FIG. 18)

Q: Which plasma glucose levels (wild type C57bl/6 mice; 30 nmol/kg ip) does the source give for “KPLAEIDSIELSYGIK (MISC_FEATURE - peptide, FOL-014)” here?
A: lowered the plasma glucose levels with a significant effect at 45 minutes after the glucose injection

Q: What about the plasma glucose levels (wild type C57bl/6 mice; 200 nmol/kg ip) of the same sequence?
A: significantly lowered the plasma glucose levels as compared to the control when measured as area under the curve; also recorded: significantly lowered the plasma glucose levels as compared to the control at 15 minutes, 30 minutes and 45 minutes

Q: What about the insulin secretion [1] of the same sequence?
A: increase the insulin secretion capacity in 1.2B4 human β-cells; also recorded: significantly increased the insulin secretion as compared with cells treated with an un-supplemented high glucose buffer
